Source: patent publication US20190053492A1, “SUBSTITUTED PYRIDINE COMPOUNDS AS PESTICIDES” (Bayer CropScience Aktiengesellschaft, priority 2016, published 2019)
Where two headings read alike, the source gives them in different places.

Experiments:
[1] = log P by HPLC on reversed-phase column (C 18), EEC Directive 79/831 Annex V.A8; assay type: physicochemical; conditions: 55° C.; for LOGP_HCOOH: log P (HCOOH); for chromatographic logP: reversed-phase HPLC column (C 18)
Experimental: Temperature: 55° C. […] Called log P (HCOOH) in the table. […] Called log P (neutral) in the table.

Spodoptera frugiperda = Spodoptera frugiperda spray test; assay type: in vivo; conditions: after 7 days, maize leaf discs; for pest or weed control at 500 g/ha / pest or weed control at 100 g/ha: Spodoptera frugiperda, foliar, 168 h, read-out: efficacy (caterpillars killed)
Summary of the method: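 Maize leaf discs were sprayed with compound formulated in acetone/DMF and emulsifier-containing water, dried, then infested with Spodoptera frugiperda caterpillars. Percent kill was scored after 7 days, from 100% (all dead) to 0% (none dead).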

Phaedon cochleariae = Phaedon cochleariae spray test; assay type: in vivo; conditions: after 7 days, Chinese cabbage leaf discs
Experimental: Phaedon cochleariae—Spray Test
Solvent: 78.0 parts by weight of acetone • • 1.5 parts by weight of dimethylformamide
Emulsifier: alkylaryl polyglycol ether
To produce a suitable active ingredient formulation, 1 part by weight of active ingredient is dissolved with the specified parts by weight of solvent and made up with water containing an emulsifier concentration of 1000 ppm until the desired concentration is attained. To produce further test concentrations, the formulation is diluted with emulsifier-containing water.
Discs of Chinese cabbage leaves (Brassica pekinensis) are sprayed with an active ingredient formulation of the desired concentration and, after drying, populated with larvae of the mustard beetle (Phaedon cochleariae).
After 7 days, the efficacy in % is determined. 100% means that all the beetle larvae have been killed; 0% means that no beetle larvae have been killed.

[2] = acidic range pH 2.7, 0.1% aqueous formic acid and acetonitrile, reversed-phase column (C 18)
[3] = log P (neutral), HPLC reversed-phase column (C 18)
[4] = pH 2.7, LC-MS acidic range, pH 2.7, 0.1% formic acid/acetonitrile, read-out: log P (acidic) / log P (HCOOH)
[5] = pH 7.8, LC-MS neutral range, pH 7.8, ammonium hydrogencarbonate/acetonitrile, read-out: log P (neutral)
[6] = Phaedon cochleariae, foliar, 168 h, application rate 500 g/ha, read-out: efficacy (beetle larvae killed)
[7] = log P, neutral range, HPLC on reversed-phase column (C 18)
[8] = acidic range at pH 2.7, 0.1% aqueous formic acid and acetonitrile, HPLC on reversed-phase column (C 18)

Compound	LOGP_HCOOH [1, 2]	LOGP_NEUTRAL [1, 7]	efficacy (caterpillars killed) (Spodoptera frugiperda; application rate 500 g/ha)	efficacy (beetle larvae killed) (Phaedon cochleariae; application rate 500 g/ha)	efficacy (caterpillars killed) (Spodoptera frugiperda; application rate 100 g/ha)	other results
O=C(NC1CC1)c1cc(-c2ccc(S(=O)(=O)C(F)(F)F)cc2)cc(NC(=O)C2CC2)n1 [Example I-103]	3.28	3.17	100%	100%	–	–
O=C(NC1CCOC1=O)c1cc(-c2ccc(OC(F)(F)F)cc2)cc(NC(=O)C2CC2)n1 (stereo not shown) [Example I-135]	–	–	100%	83%	–	LOGP_HCOOH [1, 8]: 3.11
CC(NC(=O)c1cc(-c2ccc(C(F)(F)F)cc2)cc(NC(=O)C2CC2)n1)c1ccc(C(F)(F)F)cc1 (stereo not shown) [Example I-057]	4.91	4.77	100%	83%	–	–
O=C(NCc1ccc(Cl)c(F)c1)c1cc(-c2ccc(C(F)(F)F)cc2)cc(NC(=O)C2CC2)n1 [Example I-056]	4.57	4.44	100%	100%	100%	–
CCCCNC(=O)c1cc(-c2ccc(C(F)(F)F)cc2)cc(NC(=O)C2CC2)n1 [Example I-037]	4.05	3.98	100%	83%	83%	–
N#Cc1ccc(NC(=O)c2cc(-c3ccc(C(F)(F)F)cc3)cc(NC(=O)C3CC3)n2)cc1 [Example I-019]	4.40	4.33	100%	100%	–	–
N#Cc1ccc(CNC(=O)c2cc(-c3ccc(OC(F)(F)C(F)(F)F)cc3)cc(NC(=O)C3CC3)n2)cc1 [Example I-191]	–	–	100%	83%	–	LOGP_HCOOH [1, 8]: 4.38
O=C(NC1(C(F)(F)F)CC1)c1cc(-c2ccc(OC(F)(F)F)cc2)cc(NC(=O)C2CC2)n1 [Example I-137]	–	–	100%	100%	100%	LOGP_HCOOH [1, 8]: 4.17; efficacy (beetle larvae killed) (Phaedon cochleariae; application rate 100 g/ha): 100%
CC(NC(=O)c1cc(-c2ccc(C(F)(F)F)cc2)cc(N(C(=O)C2CC2)C(=O)C2CC2)n1)c1ccc(C#N)cc1 (stereo not shown) [Example I-039]	4.36	4.31	100%	100%	100%	efficacy (beetle larvae killed) (Phaedon cochleariae; application rate 100 g/ha): 100%
C[C@H](NC(=O)c1cc(-c2ccc(OC(F)(F)F)cc2)cc(NC(=O)C2CC2)n1)c1ccc(C(F)(F)F)cc1 [Example I-061]	5.01	4.89	100%	100%	100%	–
O=C(NCC(F)(F)F)c1cc(-c2ccc(C(F)(F)F)cc2)cc(NC(=O)C2CC2)n1 [Example I-009]	3.82	3.77	100%	100%	–	–
CC(C)NC(=O)c1cc(-c2ccc(C(F)(F)F)cc2)cc(NC(=O)C2CC2)n1 [Example I-018]	2.65	3.68	100%	100%	83%	–
N#Cc1ccc(CNC(=O)c2cc(-c3ccc(C(F)(F)F)nc3)cc(NC(=O)C3CC3)n2)cc1 [Example I-123, N-(4-Cyanobenzyl)-6′-[(cyclopropylcarbonyl)amino]-6-(trifluoromethyl)-3,4′-bipyridine-2′-carboxamide]	–	2.99	–	–	–	chromatographic logP [1, 4]: 3.02; chromatographic logP ([1]; pH 2.7, log P (HCOOH), acidic range at pH 2.7, 0.1% aqueous formic acid and acetonitrile, HPLC on reversed-phase column (C 18), read-out: LOGP_HCOOH): 3.13; pest or weed control at 500 g/ha (Spodoptera frugiperda; application rate 500 g/ha): 100%; pest or weed control at 500 g/ha (Phaedon cochleariae; [6]): 100%
C[C@H](NC(=O)c1cc(-c2ccc(C(F)(F)F)cc2)cc(NC(=O)C2CC2)n1)c1ccc(C(F)(F)F)cc1 [Example I-060]	4.89	4.82	100%	100%	83%	–

More lines, main results first:

LOGP_HCOOH [1, 2]	LOGP_NEUTRAL [1, 7]	Compound	efficacy (caterpillars killed) (Spodoptera frugiperda; application rate 500 g/ha)	efficacy (beetle larvae killed) (Phaedon cochleariae; application rate 500 g/ha)	efficacy (caterpillars killed) (Spodoptera frugiperda; application rate 100 g/ha)	other results
2.08	–	N#Cc1ccc(CNC(=N)c2cc(-c3ccc(OC(F)(F)F)cc3)cc(NC(=O)C3CC3)n2)cc1 [Example I-258, N-{6-[N-(4-Cyanobenzyl)carbamimidoyl]-4-[4-(trifluoromethoxy)phenyl]pyridin-2-yl}cyclopropanecarboxamide]	–	–	–	LOGP_NEUTRAL [1, 3]: 4.24; chromatographic logP [1, 4]: 2.08; chromatographic logP [1, 5]: 4.24; pest or weed control at 500 g/ha (Spodoptera frugiperda; application rate 500 g/ha): 83%; pest or weed control at 500 g/ha (Phaedon cochleariae; [6]): 83%
–	4.45	CC(C)(C)C(=O)Nc1cc(-c2ccc(OC(F)(F)F)cc2)cc(C(=O)NCc2ccc(C#N)cc2)n1 [Example I-206]	100%	100%	100%	–
4.62	–	O=C(NC(=O)C1CC1)c1cc(-c2ccc(C(F)(F)C(F)(F)F)c(F)c2)cc(NC(=O)C2CC2)n1 [Example I-264, N-(Cyclopropylcarbonyl)-6-[(cyclopropylcarbonyl)amino]-4-[3-fluoro-4-(pentafluoroethyl)-phenyl]pyridine-2-carboxamide]	–	–	–	LOGP_NEUTRAL [1, 3]: 4.53; chromatographic logP [1, 4]: 4.62; chromatographic logP [1, 5]: 4.53; pest or weed control at 100 g/ha (Spodoptera frugiperda; application rate 100 g/ha): 100%; pest or weed control at 500 g/ha (Spodoptera frugiperda; application rate 500 g/ha): 100%; pest or weed control at 100 g/ha (Phaedon cochleariae; Phaedon cochleariae, foliar, 168 h, application rate 100 g/ha, read-out: efficacy (beetle larvae killed)): 100%; pest or weed control at 500 g/ha (Phaedon cochleariae; [6]): 100%
4.03	–	N#Cc1ccc(CNC(=O)c2cc(-c3ccc(OC(F)(F)C(F)C(F)(F)F)cc3)cc(NC(=O)C3CC3)n2)cc1 (stereo not shown) [Example I-254]	100%	100%	83%	LOGP_NEUTRAL [1, 3]: 3.98; efficacy (beetle larvae killed) (Phaedon cochleariae; application rate 100 g/ha): 100%
3.50	–	CC(C)ONC(=O)c1cc(-c2ccc(OC(F)(F)F)cc2)cc(NC(=O)C2CC2)n1 [Example I-237, 6-[(Cyclopropylcarbonyl)amino]-N-isopropoxy-4-[4-(trifluoromethoxy)phenyl]pyridine-2-carboxamide]	–	–	–	LOGP_NEUTRAL [1, 3]: 3.45; chromatographic logP [1, 4]: 3.5; chromatographic logP [1, 5]: 3.45; pest or weed control at 500 g/ha (Spodoptera frugiperda; application rate 500 g/ha): 100%; pest or weed control at 500 g/ha (Phaedon cochleariae; [6]): 83%
–	3.48	N#Cc1ccc(CNC(=O)c2cc(-c3ccc(OC(F)(F)C(F)F)cc3)cc(NC(=O)C3CC3)n2)cc1 [Example I-153]	100%	100%	100%	LOGP_HCOOH [1, 8]: 3.60; efficacy (beetle larvae killed) (Phaedon cochleariae; application rate 100 g/ha): 100%
4.57	–	N#Cc1ccc(CNC(=O)c2cc(-c3c(Cl)cc(C(F)(F)C(F)(F)F)c(F)c3Cl)cc(NC(=O)C3CC3)n2)cc1 [Example I-276]	83%	100%	–	–
–	3.00	N#Cc1ccc(CNC(=O)c2cc(-c3ccc(CC(F)(F)F)cc3)cc(NC(=O)C3CC3)n2)cc1 [Example I-144]	100%	100%	100%	LOGP_HCOOH [1, 8]: 3.55; efficacy (beetle larvae killed) (Phaedon cochleariae; application rate 100 g/ha): 100%
3.88	–	N#Cc1ccc(/C=N/NC(=O)c2cc(-c3ccc(OC(F)(F)F)cc3)cc(NC(=O)C3CC3)n2)cc1 [Example I-252, N-(6-{[(2E)-2-(4-Cyanobenzylidene)hydrazino]carbonyl}-4-[4-(trifluoromethoxy)phenyl]pyridin-2-yl)cyclopropanecarboxamide]	–	–	–	LOGP_NEUTRAL [1, 3]: 3.83; chromatographic logP [1, 4]: 3.88; chromatographic logP [1, 5]: 3.83; pest or weed control at 100 g/ha (Spodoptera frugiperda; application rate 100 g/ha): 83%; pest or weed control at 500 g/ha (Spodoptera frugiperda; application rate 500 g/ha): 100%; pest or weed control at 500 g/ha (Phaedon cochleariae; [6]): 100%
4.08	–	COC1(NC(=O)c2cc(-c3ccc(C(F)(F)C(F)(F)F)c(F)c3)cc(NC(=O)C3CC3)n2)CC1 [Example I-244]	100%	100%	100%	LOGP_NEUTRAL [1, 3]: 4.08; efficacy (beetle larvae killed) (Phaedon cochleariae; application rate 100 g/ha): 100%
4.45	–	Cc1cc(-c2cc(NC(=O)C3CC3)nc(C(=O)NCc3ccc(C#N)cc3)c2)ccc1C(F)(F)C(F)(F)F [Example I-270]	100%	100%	–	–
